Our source for the IC50 values is US9359352B2, “Substituted benzimidazoles as PI3 kinase inhibitors” (Intellikine LLC, priority 2010, dated 2016).

Format in all cases: biochemical
In test [1] the target is T1, PI3K γ (Homo sapiens, UniProt P48736).
T1 construct: purchased Upstate
The test can be described thus: PI 3-Kinase HTRF inhibition assay, PI3K γ. As to conditions: in vitro. On the technique in general: TR-FRET usually uses a lanthanide donor and a delayed reading to cut background.

The target of test [2] is T2, PI3K β (Homo sapiens, UniProt P42338).
T2 construct: purchased Upstate
T2 sequence (P42338 whole entry): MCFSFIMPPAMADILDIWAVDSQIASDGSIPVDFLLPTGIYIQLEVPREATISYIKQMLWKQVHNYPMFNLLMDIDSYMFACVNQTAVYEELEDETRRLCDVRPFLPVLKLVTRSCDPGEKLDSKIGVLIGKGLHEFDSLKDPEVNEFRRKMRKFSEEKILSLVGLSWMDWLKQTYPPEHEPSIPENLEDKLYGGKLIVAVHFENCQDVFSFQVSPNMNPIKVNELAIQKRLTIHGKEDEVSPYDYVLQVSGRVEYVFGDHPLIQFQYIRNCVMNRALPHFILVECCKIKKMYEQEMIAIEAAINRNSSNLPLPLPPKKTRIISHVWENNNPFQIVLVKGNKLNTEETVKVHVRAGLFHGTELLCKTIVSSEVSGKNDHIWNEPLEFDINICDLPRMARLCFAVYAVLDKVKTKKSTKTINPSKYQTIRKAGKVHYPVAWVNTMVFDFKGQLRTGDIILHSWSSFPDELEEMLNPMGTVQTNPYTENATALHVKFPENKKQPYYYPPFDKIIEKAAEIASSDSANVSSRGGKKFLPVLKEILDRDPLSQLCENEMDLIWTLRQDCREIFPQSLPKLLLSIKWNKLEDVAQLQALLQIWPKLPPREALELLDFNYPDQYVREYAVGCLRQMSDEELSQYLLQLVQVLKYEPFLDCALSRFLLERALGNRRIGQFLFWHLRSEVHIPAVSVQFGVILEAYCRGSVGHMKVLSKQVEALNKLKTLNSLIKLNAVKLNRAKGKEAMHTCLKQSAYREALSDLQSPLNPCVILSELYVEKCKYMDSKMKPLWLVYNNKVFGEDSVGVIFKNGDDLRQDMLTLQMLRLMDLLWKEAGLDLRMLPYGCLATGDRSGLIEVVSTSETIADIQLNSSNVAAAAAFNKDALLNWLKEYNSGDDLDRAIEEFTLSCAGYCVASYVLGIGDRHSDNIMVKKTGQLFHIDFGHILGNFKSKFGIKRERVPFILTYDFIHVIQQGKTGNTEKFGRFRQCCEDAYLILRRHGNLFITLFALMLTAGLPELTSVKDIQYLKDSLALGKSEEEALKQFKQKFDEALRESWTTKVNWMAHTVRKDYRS
T2 sequence (P27986 whole entry partner): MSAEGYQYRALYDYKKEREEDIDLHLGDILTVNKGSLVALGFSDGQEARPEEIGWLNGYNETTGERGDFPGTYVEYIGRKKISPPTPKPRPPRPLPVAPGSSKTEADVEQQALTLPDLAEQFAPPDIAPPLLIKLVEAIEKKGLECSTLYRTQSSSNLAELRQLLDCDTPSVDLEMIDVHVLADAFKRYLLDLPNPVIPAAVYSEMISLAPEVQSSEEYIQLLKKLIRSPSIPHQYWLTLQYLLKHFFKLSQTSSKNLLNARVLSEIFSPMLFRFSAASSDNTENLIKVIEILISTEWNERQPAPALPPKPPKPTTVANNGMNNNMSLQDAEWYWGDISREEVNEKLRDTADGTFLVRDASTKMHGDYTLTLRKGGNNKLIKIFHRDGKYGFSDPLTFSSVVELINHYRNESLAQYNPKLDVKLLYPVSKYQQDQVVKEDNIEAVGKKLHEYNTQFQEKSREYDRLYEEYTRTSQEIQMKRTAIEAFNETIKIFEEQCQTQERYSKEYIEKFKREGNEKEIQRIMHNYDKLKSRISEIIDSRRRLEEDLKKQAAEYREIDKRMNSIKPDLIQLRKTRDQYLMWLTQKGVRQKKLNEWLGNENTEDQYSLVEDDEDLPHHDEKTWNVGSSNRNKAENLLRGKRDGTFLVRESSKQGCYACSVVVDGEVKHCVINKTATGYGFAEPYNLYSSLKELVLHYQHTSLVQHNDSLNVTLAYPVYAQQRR
The test is described as follows: PI 3-Kinase HTRF inhibition assay, PI3K β. As to conditions: in vitro. As to the method: (§1) Commercial kits or systems for assaying PI3-K activities are available. The commercially available kits or systems can be used to screen for inhibitors and/or agonists of PI3-Ks including but not limited to PI 3-Kinase α, β, δ, and γ. An exemplary system is PI 3-Kinase (human) HTRF™ Assay from Upstate. […] Briefly, the assay is a time resolved FRET assay that indirectly measures PIP3 product formed by the activity of a PI3-K. The kinase reaction is performed in a microtitre plate (e.g., a 384 well microtitre plate). The total reaction volume is approximately 20 ul per well. In the first step, each well receives 2 ul of test compound in 20% dimethylsulphoxide resulting in a 2% DMSO final concentration. Next, approximately 14.5 ul of a kinase/PIP2 mixture (diluted in 1× reaction buffer) is added per well for a final concentration of 0.25-0.3 ug/ml kinase and 10 μM PIP2. The plate is scaled and incubated for 15 minutes at room temperature. To start the reaction, 3.5 ul of ATP (diluted in 1× reaction buffer) is added per well for a final concentration of 10 μM ATP. The plate is sealed and incubated for 1 hour at room temperature. The reaction is stopped by adding 5 ul of Stop Solution per well and then 5 ul of Detection Mix is added per well. The plate is sealed, incubated for 1 hour at room temperature, and then read on an appropriate plate reader. Data is analyzed and IC50s are generated using GraphPad Prism 5. For PI3K α, β, δ, and γ, the nM concentration of inhibitor to reach IC50 is provided. […] Similar assays, and others known in the art, can be used to measure the percent inhibition of other kinases, including but not limited to PI3K class II kinases, phosphoinositide 4 kinases (PI4K), and phosphoinositide 5 kinases (PI5K).

Test [3] has as its target T3, mTOR C (Homo sapiens, UniProt P42345).
T3 construct: purchased Invitrogen
The test is described as follows: mTOR kinase inhibition assay (mTORC IC50). The settings on record: in vitro. As to the method:
The cross-activity or lack thereof of one or more compounds of the present invention against mTor can be measured according to any procedures known in the art or methods disclosed below. The compounds described herein can be tested against recombinant mTOR (Invitrogen) in an assay containing 50 mM HEPES, pH 7.5, 1 mM EGTA, 10 mM MgCl2, 2.5 mM, 0.01% Tween, 10 μM ATP (2.5 μCi of […]), and 3 μg/mL BSA. Rat recombinant PHAS-1/4EBP1 (Calbiochem; 2 mg/mL) is used as a substrate. Reactions are terminated by spotting onto nitrocellulose, which is washed with 1M NaCl/1% phosphoric acid (approximately 6 times, 5-10 minutes each). Sheets are dried and the transferred radioactivity quantitated by phosphorimaging.
Other kits or systems for assaying mTOR activity are commercially available. For instance, one can use Invitrogen's LanthaScreen™ Kinase assay to test the inhibitors of mTOR disclosed herein. This assay is a time resolved FRET platform that measures the phosphorylation of GFP labeled 4EBP1 by mTOR kinase. The kinase reaction is performed in a white 384 well microtitre plate. The total reaction volume is 20 ul per well and the reaction buffer composition is 50 mM HEPES pH7.5, 0.01% Polysorbate 20, 1 mM EGTA, 10 mM MnCl2, and 2 mM DTT. In the first step, each well receives 2 ul of test compound in 20% dimethylsulphoxide resulting in a 2% DMSO final concentration. Next, 8 ul of mTOR diluted in reaction buffer is added per well for a 60 ng/ml final concentration. To start the reaction, 10 ul of an ATP/GFP-4EBP1 mixture (diluted in reaction buffer) is added per well for a final concentration of 10 μM ATP and 0.5 μM GFP-4EBP1. The plate is sealed and incubated for 1 hour at room temperature. The reaction is stopped by adding 10 ul per well of a Tb-anti-pT46 4EBP1 antibody/EDTA mixture (diluted in TR-FRET buffer) for a final concentration of 1.3 nM antibody and 6.7 mM EDTA. The plate is sealed, incubated for 1 hour at room temperature, and then read on a plate reader set up for LanthaScreen™ TR-FRET. Data is analyzed and IC50s are generated using GraphPad Prism 5.

Test [4] has as its target T4, PI3K α (Homo sapiens, UniProt P42336).
T4 construct: purchased Upstate
The test can be described thus: PI 3-Kinase HTRF inhibition assay, PI3K α. As to the method:
as §1

The target in test [5] is T5, PI3K δ (Homo sapiens, UniProt O00329).
T5 construct: purchased Upstate
T5 sequence (O00329 whole entry): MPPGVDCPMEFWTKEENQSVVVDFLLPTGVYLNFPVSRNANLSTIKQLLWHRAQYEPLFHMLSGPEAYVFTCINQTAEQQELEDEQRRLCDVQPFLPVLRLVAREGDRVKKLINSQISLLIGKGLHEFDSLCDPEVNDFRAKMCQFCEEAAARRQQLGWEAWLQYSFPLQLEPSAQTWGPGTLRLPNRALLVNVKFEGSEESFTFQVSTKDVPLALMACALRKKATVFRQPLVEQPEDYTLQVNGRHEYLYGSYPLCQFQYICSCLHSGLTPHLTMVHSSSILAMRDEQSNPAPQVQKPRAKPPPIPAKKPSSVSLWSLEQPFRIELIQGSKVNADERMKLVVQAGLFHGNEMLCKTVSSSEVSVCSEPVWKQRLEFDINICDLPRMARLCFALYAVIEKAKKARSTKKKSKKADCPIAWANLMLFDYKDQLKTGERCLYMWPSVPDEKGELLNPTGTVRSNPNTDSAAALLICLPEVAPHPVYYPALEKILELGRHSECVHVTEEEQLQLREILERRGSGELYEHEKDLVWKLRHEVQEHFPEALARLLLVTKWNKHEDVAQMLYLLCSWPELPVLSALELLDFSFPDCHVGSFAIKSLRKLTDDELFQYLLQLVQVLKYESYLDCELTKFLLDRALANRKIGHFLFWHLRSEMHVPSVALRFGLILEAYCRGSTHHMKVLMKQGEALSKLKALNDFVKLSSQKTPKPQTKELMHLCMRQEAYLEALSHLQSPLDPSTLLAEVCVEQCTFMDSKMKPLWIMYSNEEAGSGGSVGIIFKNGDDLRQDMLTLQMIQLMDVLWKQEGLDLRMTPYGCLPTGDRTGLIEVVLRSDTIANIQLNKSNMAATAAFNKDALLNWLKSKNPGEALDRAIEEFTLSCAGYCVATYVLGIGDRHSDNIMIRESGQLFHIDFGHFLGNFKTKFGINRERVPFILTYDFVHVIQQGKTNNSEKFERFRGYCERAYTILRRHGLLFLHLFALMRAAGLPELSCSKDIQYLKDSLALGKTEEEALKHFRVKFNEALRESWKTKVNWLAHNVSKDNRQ
T5 sequence (P27986 whole entry partner): as the sequence (P27986 whole entry partner) above
The test is described as follows: PI 3-Kinase HTRF inhibition assay, PI3K δ. The settings on record: in vitro; read-out: PI3K δ IC50. The method, then: as §1

The mark [6] stands for this setting: in vitro, read-out: PI3K α IC50.

Molecules are shown by their SMILES. Where two headings read alike, the source gives them in different places.

T4 sequence (P42336 whole entry): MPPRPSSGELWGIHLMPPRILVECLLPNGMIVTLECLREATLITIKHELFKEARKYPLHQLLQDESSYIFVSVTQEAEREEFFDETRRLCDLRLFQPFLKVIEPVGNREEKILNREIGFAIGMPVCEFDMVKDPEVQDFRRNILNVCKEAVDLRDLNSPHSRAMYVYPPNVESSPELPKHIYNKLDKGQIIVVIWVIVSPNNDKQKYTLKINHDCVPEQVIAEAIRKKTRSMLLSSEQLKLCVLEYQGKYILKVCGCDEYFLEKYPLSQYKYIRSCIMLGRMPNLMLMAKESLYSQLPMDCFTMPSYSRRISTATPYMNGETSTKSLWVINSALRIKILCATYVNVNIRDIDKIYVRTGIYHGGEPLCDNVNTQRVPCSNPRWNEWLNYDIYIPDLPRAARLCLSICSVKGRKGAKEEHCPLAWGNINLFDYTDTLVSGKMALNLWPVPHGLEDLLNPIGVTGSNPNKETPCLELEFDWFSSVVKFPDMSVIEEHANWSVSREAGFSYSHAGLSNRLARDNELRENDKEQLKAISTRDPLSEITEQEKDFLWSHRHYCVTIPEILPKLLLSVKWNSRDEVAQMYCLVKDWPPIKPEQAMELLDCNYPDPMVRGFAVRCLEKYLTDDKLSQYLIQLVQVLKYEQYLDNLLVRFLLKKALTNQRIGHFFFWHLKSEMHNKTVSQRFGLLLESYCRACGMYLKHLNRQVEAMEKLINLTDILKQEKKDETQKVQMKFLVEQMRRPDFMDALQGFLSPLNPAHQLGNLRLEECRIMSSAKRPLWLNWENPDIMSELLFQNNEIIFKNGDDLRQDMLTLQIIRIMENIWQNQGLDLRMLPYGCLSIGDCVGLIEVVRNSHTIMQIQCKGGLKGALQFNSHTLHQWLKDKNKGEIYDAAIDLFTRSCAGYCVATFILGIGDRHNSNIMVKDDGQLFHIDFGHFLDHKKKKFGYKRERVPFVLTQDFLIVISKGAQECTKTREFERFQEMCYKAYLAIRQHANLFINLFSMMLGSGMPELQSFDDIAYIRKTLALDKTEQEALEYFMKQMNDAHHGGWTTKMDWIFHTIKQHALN
T4 sequence (P27986 whole entry partner): as the sequence (P27986 whole entry partner) above
T1 sequence (P48736 whole entry): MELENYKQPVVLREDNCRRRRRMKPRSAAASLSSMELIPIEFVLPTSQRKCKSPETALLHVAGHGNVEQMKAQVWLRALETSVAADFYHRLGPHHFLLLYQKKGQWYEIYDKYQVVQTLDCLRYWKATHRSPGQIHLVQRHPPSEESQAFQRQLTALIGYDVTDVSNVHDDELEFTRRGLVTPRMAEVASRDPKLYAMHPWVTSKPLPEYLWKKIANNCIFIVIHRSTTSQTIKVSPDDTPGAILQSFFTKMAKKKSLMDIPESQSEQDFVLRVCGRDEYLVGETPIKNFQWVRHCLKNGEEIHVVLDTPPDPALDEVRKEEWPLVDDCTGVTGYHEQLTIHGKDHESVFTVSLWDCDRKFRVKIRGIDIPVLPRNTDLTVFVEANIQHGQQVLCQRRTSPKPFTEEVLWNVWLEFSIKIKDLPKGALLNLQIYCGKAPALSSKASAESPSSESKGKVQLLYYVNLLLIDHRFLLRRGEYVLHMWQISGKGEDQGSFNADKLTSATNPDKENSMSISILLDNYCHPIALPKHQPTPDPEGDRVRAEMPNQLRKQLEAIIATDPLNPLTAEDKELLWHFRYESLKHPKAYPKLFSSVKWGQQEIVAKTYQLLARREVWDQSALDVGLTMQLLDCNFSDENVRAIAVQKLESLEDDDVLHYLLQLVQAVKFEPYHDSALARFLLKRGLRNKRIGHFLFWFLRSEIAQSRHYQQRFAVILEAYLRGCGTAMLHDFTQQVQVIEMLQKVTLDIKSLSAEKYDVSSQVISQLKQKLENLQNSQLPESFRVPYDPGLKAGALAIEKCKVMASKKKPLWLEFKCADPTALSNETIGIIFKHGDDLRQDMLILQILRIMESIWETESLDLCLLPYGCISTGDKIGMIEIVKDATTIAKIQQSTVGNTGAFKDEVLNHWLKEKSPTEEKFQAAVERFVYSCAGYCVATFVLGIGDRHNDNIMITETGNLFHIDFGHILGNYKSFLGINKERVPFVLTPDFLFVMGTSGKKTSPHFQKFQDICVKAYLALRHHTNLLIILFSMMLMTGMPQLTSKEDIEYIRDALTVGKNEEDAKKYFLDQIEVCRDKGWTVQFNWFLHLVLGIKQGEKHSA

In the case of `Nc1nc2cc(-c3ccc4ncc(N5C6CCC5COC6)nc4n3)ccc2o1` [Compound 19], the half-maximal inhibitory concentration (IC50) – broadly, the midpoint of a concentration-inhibition curve – in test [1] was below 0.1 µM; in test [2] it was above 10 µM; in test [3], above 10 µM; in test [4] (setting [6]), below 0.1 µM; in test [5], above 10 µM.

On to `Nc1nc2cc(-c3ccc4ncc(N5CC(N6CCN(C7CC7)CC6)C5)nc4n3)ccc2o1` [Compound 69], for which the IC50 in test [1] was below 10 µM; in test [2] it was below 10 µM; in test [4] (setting [6]), below 0.1 µM; in test [5], below 10 µM.

As for `Nc1nc2cc(-c3ccc4ncc(N5CC(N6CCN(C7CC7)CC6)C5)cc4n3)ccc2o1` [Compound 70], the 50% inhibitory concentration (IC50) in test [1] was below 1 µM; in test [2], below 10 µM; in test [4] (setting [6]) it was below 0.1 µM; in test [5], below 10 µM.

In the case of `CN1CCN(C2CN(c3cnc4ccc(-c5ccc6oc(N)nc6c5)nc4n3)C2)CC1` [Compound 71], the IC50 in test [1] is above 10 µM; in test [2], below 10 µM; in test [4] (setting [6]), below 0.1 µM; in test [5] it was below 1 µM.

With `Nc1nc2cc(-c3cnc4ccc(N5CCOCC5)nc4c3)ccc2o1` [Compound 73, 5-(6-morpholino-1,5-naphthyridin-3-yl)benzo[d]oxazol-2-amine], the IC50 in test [1] is below 10 µM; in test [2], above 10 µM; in test [4] (setting [6]), below 10 µM; in test [5], above 10 µM.

As to `CN1CCN(C2CN(c3cnc4ccc(-c5ccc6oc(N)nc6c5)nc4c3)C2)CC1` [Compound 74], the half-inhibitory concentration (IC50) in test [1] was below 1 µM; in test [2], below 1 µM; in test [4] (setting [6]), below 0.1 µM; in test [5], below 1 µM.

For `CCN1CCN(C2CN(c3cnc4ccc(-c5ccc6oc(N)nc6c5)nc4c3)C2)CC1` [Compound 75], the half-inhibitory concentration (IC50) is below 10 µM in test [1], below 1 µM in test [2], below 0.1 µM in test [4] (setting [6]) and below 1 µM in test [5].

For `CCN1CCN(C2CN(c3cnc4ccc(-c5ccc6oc(N)nc6c5)nc4n3)C2)CC1` [Compound 76], the half-maximal inhibitory concentration (IC50) in test [1] is below 10 µM; in test [2], below 10 µM; in test [4] (setting [6]) it was below 0.1 µM; in test [5], below 10 µM.

As to `CC(C)N1CCN(C2CN(c3cnc4ccc(-c5ccc6oc(N)nc6c5)nc4n3)C2)CC1` [Compound 77], the half-maximal inhibitory concentration (IC50) in test [1] is above 10 µM; in test [2], above 10 µM; in test [4] (setting [6]) it was below 10 µM; in test [5] it was above 10 µM.

`CN1CC2CN(c3cnc4ccc(-c5ccc6oc(N)nc6c5)nc4n3)CC2C1` (stereo not drawn) [Compound 78]: the concentration for half-maximal inhibition (IC50) in test [1] was below 10 µM; in test [2], below 1 µM; in test [3], above 10 µM; in test [4] (setting [6]), below 0.1 µM; in test [5], below 1 µM.

For the molecule `CN1CC2CN(c3cnc4ccc(-c5ccc6oc(N)nc6c5)nc4c3)CC2C1` (stereo not drawn) [Compound 79], the IC50 is below 1 µM in test [1]; below 1 µM in test [2]; above 10 µM in test [3]; below 0.1 µM in test [4] (setting [6]); below 1 µM in test [5].

As for `CN1CCN(c2ccc3ncc(-c4ccc5oc(N)nc5c4)cc3n2)CC1` [Compound 80], the IC50 in test [1] is above 10 µM; in test [2], below 10 µM; in test [4] (setting [6]), below 10 µM; in test [5] it was above 10 µM.

As for `Nc1nc2cc(-c3cnc4ccc(N5C6CCC5COC6)nc4c3)ccc2o1` [Compound 81], the 50% inhibitory concentration (IC50) in test [1] was below 10 µM; in test [2] it was above 10 µM; in test [4], below 10 µM; in test [5] it was above 10 µM.

As for `CC(C)(N)C(=O)N1CCN(c2ccc3ncc(-c4ccc5oc(N)nc5c4)cc3n2)CC1` [Compound 82], the IC50 is below 10 µM in test [1], above 10 µM in test [2], below 10 µM in test [4] (setting [6]) and above 10 µM in test [5].

With `CN1CCN(C2CN(c3cnc4ccc(-c5ccc6oc(N)nc6c5)nc4c3)C2)CC1(C)C` [Compound 83], the 50% inhibitory concentration (IC50) was below 1 µM in test [1], below 1 µM in test [2], below 0.1 µM in test [4] (setting [6]) and below 0.1 µM in test [5].

`CN1CCN(C2CN(c3ccc4ncc(-c5ccc6oc(N)nc6c5)cc4n3)C2)CC1` [Compound 84]: the IC50 in test [1] is above 10 µM; in test [2], above 10 µM; in test [4] (setting [6]), below 10 µM; in test [5], above 10 µM.

In the case of `CC(C)N1CCN(C2CN(c3cnc4ccc(-c5ccc6nc(N)[nH]c6c5)nc4c3)C2)CC1` [Compound 85], the IC50 in test [1] was above 10 µM; in test [2], above 10 µM; in test [4] (setting [6]) it was below 0.1 µM; in test [5], above 10 µM.

As to `C[C@@H]1CN(C2CN(c3cnc4ccc(-c5ccc6nc(N)[nH]c6c5)nc4c3)C2)CCN1C` [Compound 86], the IC50 in test [1] was above 10 µM; in test [2], above 10 µM; in test [4] (setting [6]), below 0.1 µM; in test [5] it was above 10 µM.

Take `CCN1CCN(C2CN(c3cnc4ccc(-c5ccc6nc(N)[nH]c6c5)nc4c3)C2)CC1` [Compound 87]: the IC50 in test [1] is above 10 µM; in test [2], above 10 µM; in test [4] (setting [6]) it was below 0.1 µM; in test [5] it was above 10 µM.

As for `CN1CCN(C2CN(c3cnc4ccc(-c5ccc6nc(N)[nH]c6c5)nc4c3)C2)CC1` [Compound 88], the IC50 is above 10 µM in test [1], above 10 µM in test [2], below 0.1 µM in test [4] (setting [6]) and above 10 µM in test [5].

As to `C[C@H]1CN(C2CN(c3cnc4ccc(-c5ccc6nc(N)[nH]c6c5)nc4c3)C2)CCN1C` [Compound 89], the 50% inhibitory concentration (IC50) in test [1] was above 10 µM; in test [2], above 10 µM; in test [4] (setting [6]), below 0.1 µM; in test [5] it was above 10 µM.
